Assays:
[1] = system: acyl CoA-cholesterol-o-acyltransferase (ACAT); assay: ACAT activity in liver microsomes of naringin- or naringenin-fed rats (Example 5); type: in vivo, Sprague-Dawley rat; settings: liver microsomes of rats fed 0.1% compound in 1% cholesterol diet; for ACAT activity: control 806.2 ± 105.2; for % Inhibition on ACAT activity: vs control group
Text: (§1) 30 four-week-old Sprague-Dawley rats (Taihan laboratory animal center, Korea) each weighing about 90 to 110 g were evenly divided into three dietary groups by a randomized block design. The rats of the three groups were fed with three different high-cholesterol diets, i.e., AIN-76 laboratory animal diet (ICN Biochemicals, Cleveland, Ohio, U.S.A.) containing 1% cholesterol (Control group), and 1% cholesterol plus 0.1% naringin or naringenin, respectively.
To determine the effects of naringin and naringenin feeding to rats on the activity of ACAT, microsomes were separated from the liver tissue to be used as an enzyme source.
First, the rats of the three groups prepared in Example 3 were sacrificed by decapitation and the livers were excised. 1 g each of the livers was homogenized in 5 ml of homogenization medium (0.1 M KH2 PO4, pH 7.4, 0.1 mM EDTA and 10 mM β-mercaptoethanol). The homogenate was centrifuged at 3,000×g for 10 min. at 4° C. and the supernatant thus obtained was centrifuged at 15,000×g for 15 min. at 4° C. to obtain a supernatant. The supernatant was put into an ultracentrifuge tube (Beckman) and centrifuged at 100,000×g for 1 hour at 4° C. to obtain microsomal pellets, which were then suspended in 3 ml of the homogenization medium and centrifuged at 100,000×g for 1 hour at 4° C. The pellets thus obtained were suspended in 1 ml of the homogenization medium. The concentration of proteins in the resulting suspension was determined by Lowry's method and then adjusted to 4 to 8 mg/ml. The resulting suspension was stored in a deep freezer (Biofreezer, Forma Scientific Inc.).
6.67 μl of 1 mg/ml cholesterol solution in acetone was mixed with 6 μl of 10% Triton WR-1339(Sigma Co.) in acetone and, then, acetone was removed from the mixture by evaporation using nitrogen gas. Distilled water was added to the resulting mixture in an amount to adjust the concentration of cholesterol to […].
To 10 μl of the resulting aqueous cholesterol solution were added 10 μl of 1 M KH2 PO4 (pH 7.4), 5 μl of 0.6 mM bovine serum albumin (BSA), 10 μl of microsome solution obtained in (Step 1) and 55 μl of distilled water (total 90 μl). The mixture was pre-incubated in a waterbath at 37° C. for 30 min.
10 μl of (1-^14 C) oleoyl-CoA solution (0.05 μCi, final concentration: 10 μM) was added to the pre-incubated mixture and the resulting mixture was incubated in a waterbath at 37° C. for 30 min. […]
200 μl of the resulting supernatant was put in a scintillation bottle and 4 ml of scintillation fluid (Lumac) was added thereto. The mixture was assayed for radioactivity with 1450 Microbeta liquid scintillation counter (Wallacoy, Finland). ACAT activity was calculated as picomoles of cholesteryl oleate synthesized per min. per mg protein (pmoles/min/mg protein).

[2] = system: liver function; settings: in vivo
[3] = system: ICR mice; assay: Acute oral toxicity of naringin or naringenin in mice; type: in vivo, mouse; settings: for toxicity or mitogenicity: tests using mice
Method: 7 to 8 week-old, specific pathogen-free ICR female mice (6 heads) each weighing about 25 to 29 g and male mice (6 heads) each weighing about 34 to 38 g were bred under a condition of temperature 22±1° C., moisture 55±5% and photoperiod 12L/12D. Fodder (Cheiljedang Co., mouse and rat fodder) and water were sterilized and fed to the mice.
Naringin or naringenin was dissolved in 0.5% Tween 80 to a concentration of 100 mg/ml, and the solution was orally administered to the mice in an amount of 0.2 ml per 20 g of mouse body weight. […] The weight changes of the mice were recorded every day to examine the effect of naringin or naringenin. Further, on the 10th day, the mice were sacrificed and the internal organs were visually examined.

[4] = system: hepatic cells; settings: rabbits, six weeks
Method: The same procedure as in (Step 1) was repeated except that 30 three-month old New Zealand White rabbits (Yeonam Horticulture and Animal Husbandry College, Korea) each weighing about 2.5 to 2.6 kg were used in place of the rats, and the rabbits were fed for six weeks with three different diets, i.e., RC4 diet containing 1% cholesterol (Control group); 1% cholesterol plus 1 mg/kg Lovastatin® (Comparative group); and 1% cholesterol plus 0.1% naringin, respectively.
Thereafter, the livers were separated from the rabbits and the histopathological observations were carried out as follows.
The rabbits were anesthetized with an intramuscular injection of ketamine (75 mg/kg) and subjected to an abdominal incision. […] The fixed liver was washed sufficiently with water, dehydrated stepwise with 70%, 80%, 90% and 100% ethanol and, then, embedded in paraffin. The embedded liver was sectioned in 4 μm thickness with a microtome and stained with hematoxylin and eosin. The stained liver specimen was made transparent with xylene, mounted with permount, and then observed under a microscope to confirm the presence of lesions.

[5] = Serum GOT and GPT levels in rats (Example 7); type: in vivo, Sprague-Dawley rat; settings: 1% cholesterol diet plus 0.02% naringin, six weeks
Text: as §1, with “20” for “30”, “two” for “three”, “0.02% naringin,” for “0.1% naringin or naringenin,”
Blood samples were taken from the rats of the two dietary groups and serum GOT (glutamate-oxaloacetate transaminase) and GPT (glutamate-pyruvate transaminase) levels were determined in accordance with the method of Reitman and Frankel (Reitman, S. and J. S. Frankel, Am. J. Clin. Pathol., 28, 56(1956)). GOT and GPT are synthesized in the liver and heart, and released into blood stream upon the damage of these organs. Accordingly, GOT and GPT are representative markers of the liver-function and high serum GOT and GPT levels mean severe damage of the liver.

[6] = single oral dose, 1,000 mg/kg, mice

Row | SMILES | ACAT activity [1] [pmole/min/mg protein] | % Inhibition on ACAT activity [1] [%] | adverse effects on the liver function [2] | survival at day 10 [3, 6] | weight loss ([3]; single oral dose, 1,000 mg/kg, mice, 10 day test period) | toxicity ([3]; single oral dose, 1,000 mg/kg, mice, 10 days) | pathological abnormality at autopsy ([3]; single oral dose, 1,000 mg/kg, mice, day 10) | toxicity or mitogenicity [3] | occurrence of fatty liver ([4]; 1% cholesterol diet plus 0.1% naringin) | microscopic features of the liver (FIGS. 2A-2C) ([4]; 1% cholesterol diet, 1 mg/kg Lovastatin, 0.1% naringin) | serum GOT level lower than control group [5] | serum GPT level lower than control group [5] [%] | corresponding oral administration dose for a person weighing 50 kg ([3]; mouse, in vivo)
1 | O=C1C[C@@H](c2ccc(O)cc2)Oc2cc(O)cc(O)c21 [naringenin] | 666.3 ± 65.3 | 17.4 | no adverse effects on the liver function | All the mice were alive | no weight loss | no toxicity | did not develop any pathological abnormality | little toxicity or mitogenicity | – | – | – | – | –
2 | C[C@@H]1O[C@@H](O[C@H]2[C@H](Oc3cc(O)c4c(c3)O[C@H](c3ccc(O)cc3)CC4=O)O[C@H](CO)[C@@H](O)[C@@H]2O)[C@H](O)[C@H](O)[C@H]1O [naringin, Naringin] | 643.5 ± 80.7 | 20.2 | no adverse effects on the liver function | All the mice were alive | – | – | – | little toxicity or mitogenicity | strongly inhibits the occurrence of fatty liver | normal and the deposition of fat is not observed | about 30% | ~10 | 50-100 g/kg body weight

Source: patent publication US6165984A, “Naringin and naringenin as inhibitors of acyl CoA-cholesterol-o-acyltransferase” (Korea Institute of Science & Technology, priority 1997, dated 2000)
